This note sets out measurements from PubChem BioAssay (NCI).

Holding throughout (test): inhibition of tumour cell growth, NCI panel, 48 h
For assay [1], the system named is MDA-MB-435.
Assay [2] relates to CAKI-1 renal.
In assay [3] the test system is OVCAR-5 ovarian.
Assay [4] relates to RXF 393 renal.
Assay [5] relates to COLO 205 colon.
For assay [6], the system named is SK-MEL-5 melanoma.
Assay [7] has as its system CCRF-CEM leukemia.
The subject of assay [8] is OVCAR-4 ovarian.
The subject of assay [9] is ACHN renal.
Assay [10] deals with HS 578T breast.

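48-hour exposure; five concentrations; linearly interpolated endpoints. GI50: concentration for 50% inhibition of growth. The concentration for full growth arrest is given as TGI.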 Bounds are passed on as bounds.

With `Cc1cc(Nc2cc(N3CCN(C)CC3)nc(C#Cc3ccccc3)n2)n[nH]1`, the GI50 is 3.24 µM in [1]; 0.945 µM in [2]; 3.58 µM in assay [3]; 1.18 µM in [4]; 1.69 µM in assay [5]; 4.32 µM in assay [6]. Also, the GI50 in assay [7] is 6.89 µM; in [8], 1.7 µM; in assay [9] it was 1.06 µM; in assay [10] it was 1.74 µM. In addition, the TGI worked out at 16.1 µM in assay [1]; 8.71 µM in [2]; 18.8 µM in assay [3]; 3.79 µM in assay [4]; 4.62 µM in assay [5]; 16.5 µM in assay [6]. In addition, the TGI is above 69.5 µM in assay [7], 13.3 µM in assay [8], 11.7 µM in assay [9] and 6.22 µM in [10].

With `Cc1cc(C(=O)Nc2cc(Nc3ncccc3-c3ncnc4nc[nH]c34)ccc2F)cc(C(C)(C)C#N)c1`, the GI50 in [1] was 0.182 µM; in [2] it was 0.951 µM; in assay [3] it was 0.211 µM; in assay [4], 4.82 µM; in assay [5] it was 0.0526 µM; in assay [6] it was 1.38 µM. Besides, the GI50 was 3.47 µM in [7], 5.33 µM in assay [8], 1.22 µM in assay [9] and 1.92 µM in assay [10]. The TGI in assay [1] is above 100 µM; in [2], above 100 µM; in [3] it was above 100 µM; in [4], 42 µM; in assay [5] it was above 100 µM; in [6], 13.7 µM. The TGI in assay [7], in assay [8], in [9] and in assay [10] was above 100 µM throughout.

Take `N=C(N)SCC(=O)O`: the TGI in assay [1], in assay [2], in [3], in assay [4], in [5] and in assay [6] was above 100 µM each time. Moreover, the TGI in [7], in assay [8], in [9] and in [10] was above 100 µM in each case.

Consider `COc1ccc(C2NC(=S)NC3=C2COc2ccc(F)cc23)cc1OC` (stereo unspecified), for which the GI50 in assay [1] is 12.3 µM; in assay [2], 15.8 µM; in [3], 18.6 µM; in assay [4], 18.9 µM; in assay [5], 36.2 µM; in assay [6], 13.5 µM. Moreover, the GI50 was 93.5 µM in [7], 23 µM in [8], 13 µM in assay [9] and 7.75 µM in assay [10]. Besides, the TGI in assay [1] was 38.5 µM; in assay [2], 65 µM; in [3] it was 48.1 µM; in [4], 60.8 µM; in [5], above 100 µM; in assay [6], 30.7 µM. In addition, the TGI in assay [7] was above 100 µM; in assay [8], above 100 µM; in assay [9], 39.2 µM; in [10], 38.1 µM.

Take `NC1(C(=O)O)CSSC1`: the GI50 in [1] is 3.54 µM; in [2], 6.22 µM; in assay [3], 33.2 µM; in assay [4], 3.13 µM; in [5] it was 11.8 µM; in assay [6] it was 1.91 µM. The GI50 is 13.2 µM in assay [7], 5.44 µM in [8], 3.63 µM in assay [9] and 3.91 µM in assay [10]. The TGI in [1] was 13.9 µM; in assay [2] it was 40.5 µM; in [3], 90.1 µM; in [4], 11.1 µM; in assay [5], 27.1 µM; in assay [6], 3.68 µM. For the same compound, the TGI in assay [7] was above 100 µM; in assay [8], 46.5 µM; in assay [9] it was 14.2 µM; in [10], above 100 µM.

Consider `C=C[C@@]1(C)CC(=O)[C@]2(O)[C@@]3(C)[C@@H](O)CCC(C)(C)[C@@H]3[C@H](O)[C@@H](OC(C)=O)[C@@]2(C)O1`, for which the TGI in [1], in [2], in assay [3], in assay [4], in assay [5] and in [6] was above 100 µM throughout. Besides, the TGI in assay [7], in [8], in [9] and in [10] was above 100 µM throughout.

Regarding `CCCCCCCCCCCCNC(=O)[C@H]1CSC(c2ccsc2)N1` (stereo partly specified), the GI50 in assay [1] is 0.68 µM; in assay [2] it was 0.898 µM; in [3], 0.991 µM; in assay [4] it was 0.96 µM; in assay [5], 7.95 µM; in assay [6] it was 1.36 µM. Moreover, the GI50 in assay [8] is 0.911 µM; in [9], 0.938 µM; in [10], 1.17 µM. For the same compound, the TGI in assay [1] was 1.35 µM; in assay [2], 1.6 µM; in assay [3], 1.83 µM; in assay [4], 1.69 µM; in assay [5], 15.9 µM; in [6], 5.22 µM. The TGI was 1.73 µM in [8], 1.75 µM in assay [9] and 2.45 µM in assay [10].

Take `C/C(=N\O)[C@H]1CC[C@@]2(C)[C@@H]3CC[C@H]4C(C)(C)/C(=N/O)CC[C@@]45CC35CC[C@]12C` (stereo partly specified): the GI50 in [4] was 4.02 µM; in assay [5] it was 5.75 µM; in assay [6] it was 1.51 µM; in assay [9] it was 2.51 µM; in assay [10], 2.23 µM. Also, the TGI in [4] is 9.67 µM; in [5] it was above 16.7 µM; in assay [6], 7.59 µM; in [9], 4.97 µM; in assay [10], 7.54 µM.

For the compound `Cc1cc2c(-c3nc4ccccn4c3NC34CC5CC(CC(C5)C3)C4)c(O)c(O)cc2c(O)c1-c1c(C)cc2c(-c3nc4ccccn4c3NC34CC5CC(CC(C5)C3)C4)c(O)c(O)cc2c1O`, the GI50 in [1] was 0.552 µM; in assay [3], 0.922 µM; in assay [4], 0.464 µM; in assay [5], 0.626 µM; in assay [6], 0.564 µM; in assay [7], 0.115 µM. Further, the GI50 is 0.728 µM in [8], 0.785 µM in [9] and 0.85 µM in assay [10]. In addition, the TGI in assay [1] was above 25 µM; in assay [3], above 25 µM; in assay [4], 2.63 µM; in [5], 4.77 µM; in assay [6], 1.51 µM; in assay [7], above 25 µM. The values for the TGI in assay [8], in assay [9] and in [10] were above 25 µM, 2.88 µM and 16.2 µM, respectively.
